Experimental data published in patent US20240158446A1, “CYCLIC COMPOUND HAVING SELECTIVE INHIBITORY ACTION ON KRAS OVER HRAS AND NRAS” (CHUGAI SEIYAKU KABUSHIKI KAISHA, priority 2021, published 2024).
Like-named read-outs stand apart in the source and are kept apart here. Where a SMILES comes first, the peptide text is derived from it. Bridges are numbered along the chain shown (N, C = ends). [ ]: non-standard residue; d: D form. The star is where a group is joined. hPhe(3-Cl-4-CF3) = N[C@@H](CCc1ccc(C(F)(F)F)c(Cl)c1)C(=O)O; NPrPhe(4-CF3) = CCCN[C@@H](Cc1ccc(C(F)(F)F)cc1)C(=O)O; NEtPhe(4-CF3) = CCN[C@@H](Cc1ccc(C(F)(F)F)cc1)C(=O)O; NMeGly(cPent) = CN[C@H](C(=O)O)C1CCCC1; Aze(3S-Me) = C[C@H]1CN[C@@H]1C(=O)O; Gly(cPent) = N[C@H](C(=O)O)C1CCCC1; NMeD = CN[C@@H](CC(=O)O)C(=O)O; NMeL = CN[C@@H](CC(C)C)C(=O)O; Morpholide = C1CN(*)CCO1; Ac5c = NC1(C(=O)O)CCCC1; Aze = O=C(O)[C@@H]1CCN1; Sar = CNCC(=O)O

Assays:
[1] = target: GDP-bound NRAS wild-type protein (Homo sapiens, UniProt P01111); assay: Binding to NRAS by surface plasmon resonance (SPR), Single Cycle Kinetics; details: SPR, GDP-bound NRAS wild-type protein vs GDP-bound KRAS wild-type protein
GDP-bound NRAS wild-type protein, sequence (P01111 whole entry): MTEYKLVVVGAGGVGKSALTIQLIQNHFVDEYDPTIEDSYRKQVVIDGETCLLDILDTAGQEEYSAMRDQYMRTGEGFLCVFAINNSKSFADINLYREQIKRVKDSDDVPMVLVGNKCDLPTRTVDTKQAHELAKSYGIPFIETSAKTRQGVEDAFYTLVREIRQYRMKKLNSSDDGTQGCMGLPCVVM

[2] = target: GDP-bound HRAS wild-type protein (Homo sapiens, UniProt P01112); assay: Binding to HRAS by surface plasmon resonance (SPR), Single Cycle Kinetics; details: for HRAS/KRAS (ratio of KD value for HRAS to KD value for KRAS): SPR, GDP-bound HRAS wild-type protein vs GDP-bound KRAS wild-type protein
GDP-bound HRAS wild-type protein, sequence (P01112 whole entry): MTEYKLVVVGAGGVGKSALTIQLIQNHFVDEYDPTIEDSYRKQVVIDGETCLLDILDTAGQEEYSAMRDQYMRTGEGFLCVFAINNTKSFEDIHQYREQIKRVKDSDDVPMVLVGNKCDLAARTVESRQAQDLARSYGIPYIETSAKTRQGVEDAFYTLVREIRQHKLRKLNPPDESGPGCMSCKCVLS

[3] = target: GDP-bound KRAS wild-type protein (Homo sapiens, UniProt P01116); assay: Binding to KRAS by surface plasmon resonance (SPR), Single Cycle Kinetics; details: GDP-bound KRAS wild-type protein, read-out: KRAS KD
GDP-bound KRAS wild-type protein, sequence (P01116 whole entry): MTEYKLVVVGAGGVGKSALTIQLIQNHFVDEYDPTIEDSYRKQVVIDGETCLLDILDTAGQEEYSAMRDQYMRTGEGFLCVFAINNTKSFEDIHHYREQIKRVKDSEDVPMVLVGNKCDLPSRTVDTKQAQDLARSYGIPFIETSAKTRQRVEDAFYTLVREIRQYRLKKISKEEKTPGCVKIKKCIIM

[4] = SPR Single Cycle Kinetics, 1:1 binding model

In the case of `CC[C@H](C)[C@@H]1NC(=O)[C@H](CC(C)C)N(C)C(=O)C[C@@H](C(=O)N2CCOCC2)N(C)C(=O)[C@H](C2CCCC2)N(C)C(=O)C2(CCCC2)NC(=O)[C@@H]2CCCN2C(=O)[C@H](CCc2ccc(C(F)(F)F)c(Cl)c2)NC(=O)CN(C)C(=O)[C@H](Cc2ccc(C(F)(F)F)cc2)N(CC)C(=O)CN(C)C(=O)CN(C)C1=O` [PP0023] ([NMeL]I[Sar][Sar][NEtPhe(4-CF3)][Sar][hPhe(3-Cl-4-CF3)]P[Ac5c][NMeGly(cPent)][NMeD]-Morpholide; lactam N-11), the “NRAS/KRAS (ratio of KD value for NRAS to KD value for KRAS)” value [1] is reported as “B (a compound having 3 or more and less than 10 is denoted as B)”, the “HRAS/KRAS (ratio of KD value for HRAS to KD value for KRAS)” value [2] is reported as “C (A compound having a KD ratio of 0.1 or more and less than 3 is denoted as C)” and the Kd [3, 4] is reported as 140 pM.
For `CCO[C@@H]1C[C@H]2C(=O)NC3(CCC3)C(=O)N(C)[C@@H](C(CC)CC)C(=O)N3CCC[C@@H]3CC(=O)N(C)[C@@H](CC)C(=O)N[C@@H]([C@@H](C)CC)C(=O)N(C)CC(=O)N(C)[C@H]3C/C=C\CCN(C3=O)[C@@H](Cc3ccc(C(F)(F)F)cc3)C(=O)N(C)CC(=O)N[C@@H](CCc3cc(F)c(C(F)(F)F)c(F)c3)C(=O)N2C1` [PP1607], the “HRAS/KRAS (ratio of KD value for HRAS to KD value for KRAS)” value ([2]; KD ratio class) was “A (a compound having 10 or more and less than 20 is denoted as A)” and the Kd ([3]; SPR, Single Cycle Kinetics, 1:1 binding model) was 570 pM.
In the case of `CCC[C@H]1C(=O)N[C@@H]([C@@H](C)CC)C(=O)N(C)CC(=O)N(C)[C@H]2C/C=C\CCN(C2=O)[C@@H](Cc2ccc(C)cc2)C(=O)N(C)CC(=O)N[C@@H](CCc2ccc(Cl)c(OC)c2)C(=O)N2C[C@H](OCC)C[C@H]2C(=O)NC2(CC(C)(C)C2)C(=O)N(C)[C@@H](C(CC)CC)C(=O)N(C)[C@H](C(=O)N(C)C)CC(=O)N1C` [PP2791], the “HRAS/KRAS (ratio of KD value with respect to GDP-bound HRAS wild-type protein to KD value with respect to KRAS)” value ([2]; SPR KD ratio HRAS/KRAS, class symbols) is reported as “A (a compound having 10 or more and less than 20 is denoted as A)” and the Kd [3, 4] is reported as 1900 pM.
For `CCO[C@@H]1C[C@H]2C(=O)NC3(CC(C)(C)C3)C(=O)N(C)[C@@H](C3CCCC3)C(=O)N(C)[C@H](C(=O)N(C)C)CC(=O)N(C)[C@H]3CCCCCCc4ccc(cc4)C[C@@H](C(=O)N(C)CC(=O)N[C@@H](CCc4ccc(C(F)(F)F)c(OC)c4)C(=O)N2C1)N1CC/C=C\C[C@@H](C1=O)N(C)C(=O)CN(C1CC1)C(=O)[C@H]([C@@H](C)CC)NC3=O` [PP3070], the “HRAS/KRAS (ratio of KD value for HRAS to KD value for KRAS)” value [2] was “B (a compound having 3 or more and less than 10 is denoted as B)” and the Kd ([3]; SPR, Single Cycle Kinetics) was 170 pM.
For `CCO[C@@H]1C[C@H]2C(=O)NC3(CCC3)C(=O)N(C)[C@@H](C(CC)CC)C(=O)N(C)[C@H](C(=O)N3CCCCC3)CC(=O)N(C)[C@H]3CCCCC/C=C/c4ccc(cc4)C[C@@H](C(=O)N(C)CC(=O)N[C@@H](CCc4ccc(Cl)c(Cl)c4)C(=O)N2C1)N1CC/C=C\C[C@@H](C1=O)N(C)C(=O)CN(C)C(=O)[C@H]([C@@H](C)CC)NC3=O` [PP3051], the Kd ([3]; SPR, Single Cycle Kinetics) was 750 pM.
Work on `CCO[C@@H]1C[C@H]2C(=O)NC3(CC(C)(C)C3)C(=O)N(C)[C@@H](C(CC)CC)C(=O)N(C)[C@H](C(=O)N(C)C)CC(=O)N(C)[C@H]3CCCC/C=C/c4ccc(cc4)C[C@@H](C(=O)N(C)CC(=O)N[C@@H](CCc4cc(F)c(C(F)(F)F)c(F)c4)C(=O)N2C1)N1CC/C=C\C[C@@H](C1=O)N(C)C(=O)CN(C)C(=O)[C@H]([C@@H](C)CC)NC3=O` [PP3044] yielded a Kd ([3]; SPR, Single Cycle Kinetics) of 52 pM.
`CCCN1C(=O)CN(C)C(=O)CN(C)C(=O)[C@H](C2CCCC2)NC(=O)[C@H](CC(C)C)N(C)C(=O)C[C@@H](C(=O)N2CCOCC2)N(C)C(=O)[C@H](C2CCCC2)N(C)C(=O)C2(CCCC2)NC(=O)[C@@H]2CCCN2C(=O)[C@H](CCc2ccc(C(F)(F)F)c(Cl)c2)NC(=O)CN(C)C(=O)[C@@H]1Cc1ccc(C(F)(F)F)cc1` [PP0251] ([NMeL][Gly(cPent)][Sar][Sar][NPrPhe(4-CF3)][Sar][hPhe(3-Cl-4-CF3)]P[Ac5c][NMeGly(cPent)][NMeD]-Morpholide; lactam N-11) showed a Kd [3, 4] of 250 pM.
Compound `CCCN1C(=O)[C@@H]2CCN2C(=O)[C@@H]2[C@@H](C)CN2C(=O)[C@H]([C@@H](C)CC)NC(=O)[C@H](CC(C)C)N(C)C(=O)C[C@@H](C(=O)N2CCOCC2)N(C)C(=O)[C@H](C2CCCC2)N(C)C(=O)C2(CCCC2)NC(=O)[C@@H]2CCCN2C(=O)[C@H](CCc2ccc(C(F)(F)F)c(Cl)c2)NC(=O)CN(C)C(=O)[C@@H]1Cc1ccc(C(F)(F)F)cc1` [PP0279] ([NMeL]I[Aze(3S-Me)][Aze][NPrPhe(4-CF3)][Sar][hPhe(3-Cl-4-CF3)]P[Ac5c][NMeGly(cPent)][NMeD]-Morpholide; lactam N-11) has a Kd [3, 4] of 360 pM.
